Data published in US20110213038A1, “CONTROL OF BED BUGS” (priority 2008, published 2011).

Key:
[1] = tested on: adult bed bugs Cimex lectularius; experiment: Vapor exposure of unconcealed bed bugs in sealed jar, 24 hour mortality; type: in vivo; settings: one drop (about 25-30 mg) on filter paper in sealed 16 oz. glass jar
Method: (§1) This test was undertaken employing unconcealed bed bugs. One drop (about 25-30 mg) of a naturally occurring aromatic test compound was applied to a filter paper and placed with a 16 oz. glass jar (3½ inches diameter×3⅞ inches high) containing ten adult bed bugs Cimex lectularius of both sexes. The jar was then sealed with a plastic lid. Five replicates of ten bed bugs were exposed to each of the test compounds. The test formulations were assessed for 24 hour mortality. A control jar with no test compound was also included in the testing.
The test was repeated with several other test compounds in the same manner: […]

[2] = tested on: adult bed bugs Cimex lectularius; experiment: Vapor exposure of concealed bed bugs (folded mattress ticking) in sealed jar, 72 hour mortality; type: in vivo; settings: one drop (about 25-30 mg) on filter paper in sealed 16 oz. glass jar
Method: as §1, with “conducted using concealed” for “undertaken employing unconcealed”, “sexes. A piece of folded mattress ticking was also placed in the jar to allow the bed bugs a place to hide.” for “sexes.”, “Mortality was” for “The test formulations were”, “at 72 hours.” for “for 24 hour mortality.”, “testing. The mortality results were as follows.” for “testing.”

[3] = repeated test with other compounds

Molecule	24 hr Mean Mortality % [1, 3] [%]	72 hr Mean Mortality % [2] [%]	24 hr Mean Mortality % ([1]; first test) [%]
CC(O)c1ccccc1 (stereo not shown) [Styralyl alcohol]	89.8	91.8	
CC(C)[C@@H]1CC[C@@H](C)C(=O)C1 [Tetrahydrocarvone]	58.1	16.7	
C=C(C)[C@H]1CC=C(C)C(=O)C1 [d-Carvone]	47.8		
C=C[C@@](C)(O)CCC=C(C)C [d-Linalool]	92.0		
C=C[C@](C)(O)CCC=C(C)C [l-Linalool]		68	100.0
l-Carvone		46.7	73.5
